Data set [1] in a line: Dynamic vapor sorption (DVS) hygroscopicity, with XRPD before and after. In kind it is physicochemical. Particulars: for weight gain by hygroscopicity: DVS; for crystal form before and after DVS detection (XRPD): XRPD redetermined after DVS. Here is the method:
(§1) Test conditions for the instruments used in experiments of the present disclosure: • 1. X-ray Powder Diffraction, XRPD • Instrument type: Malver Panalytical Aeris X-ray powder diffractometer • Ray: monochromatic Cu-Kα ray (λ=1.54188) • Scanning mode: θ/2θ, Scanning range (2θ range): 3.5-50° • Voltage: 40 kV, Electric current: 15 mA • 2. Differential Scanning calorimetry, DSC • Instrument type: TA DSC250 • Purge gas: Nitrogen; Nitrogen purge rate: 50 mL/min • Heating rate: 10° C./min • Temperature range: 25° C.-300° C. • 3. Thermogravimetric Analysis, TGA • Instrument type: TA TGA550 • Purge gas: Nitrogen; Nitrogen purge rate: 20 ml/min • Heating rate: 10° C./min • Temperature range: 30° C.-350° C. 4. Dynamic vapor sorption (DVS) • Using SMS Intrinsic PLUS, the detection is performed at 25° C., with humidity change of 50%-0%-90% with a step size of 10%, in which the criteria for judging is that the mass change dM/dT for each gradient is less than 0.002%, TMAX is 360 min, and two cycles are performed. • 5. High performance liquid chromatography (HPLC) described in the stability test of the crystal forms of the present disclosure is determined on Agilent 1260 Infinity II.

A short description of data set [2]: Stability (influence factor) test of free base crystal form E, HPLC and XRPD. It is filed as physicochemical. Particulars: for related substances (impurities) by HPLC versus initial: different days. Here is the method:
as §1
In the content detection method by the high performance liquid chromatography described in the present disclosure, HPLC conditions are as follows: chromatographic column, Agilent Eclipse Plus C18 4.6 mm*150 mm, 3.5 μm; mobile phase, A-10 mmol/L solution of sodium dihydrogen phosphate (pH 8.0), and B-ACN; flow rate, 1.0 ml/min; wavelength, 210 nm.
In the related substances detection method by the high performance liquid chromatography described in Example 8 of the present disclosure, HPLC conditions are as follows: chromatographic column, Agilent Eclipse Plus C18 4.6 mm*150 mm, 3.5 μm; mobile phase, A-10 mmol/L solution of ammonium acetate, and B-ACN; flow rate, 1.0 ml/min; wavelength, 210 nm.
It is determined whether temperature and humidity have an influence on the stability of free base crystal form E of the compound of formula I.
The free base crystal form E was placed in a stabilizing chamber […] and subjected to influence factor tests using a series of temperature and humidity combinations. After being placed for different days under light and various temperature and humidity conditions, the samples were taken out. The related substances (impurities) were detected by high performance liquid chromatography.
The samples taken out on the last day under light and various temperature and humidity conditions were subjected to XRPD detection, showing that the free base crystal form E had no change and had good stability.

[3] abbreviates: accelerated experimental conditions (80% RH).
The mark [4] stands for this setting: normal storage conditions (25° C., 60% RH).

For the compound `N#Cc1ccc2c(c1)COc1cc(C[C@@H](C#N)NC(=O)[C@@H]3CNCCCO3)c(F)cc1-2` [crystal form A], in data set [1] (setting [3]), the “weight gain by hygroscopicity” value is on record as “approximately 5.39%”. Also, the “crystal form before and after DVS detection (XRPD)” value in data set [1] was “did not change”.

With `N#Cc1ccc2c(c1)COc1cc(C[C@@H](C#N)NC(=O)[C@@H]3CNCCCO3)c(F)cc1-2` [crystal form B], the “weight gain by hygroscopicity” value in data set [1] (setting [3]) is listed as “approximately 1.60%”; in data set [1] (extreme conditions (90% RH)), “approximately 3.87%”; in data set [1] (setting [4]), “approximately 0.93%”. Moreover, the “crystal form before and after DVS detection (XRPD)” value in data set [1] was “did not change”.

As for `N#Cc1ccc2c(c1)COc1cc(C[C@@H](C#N)NC(=O)[C@@H]3CNCCCO3)c(F)cc1-2` [crystal form C], the “weight gain by hygroscopicity” value in data set [1] (setting [3]) is “approximately 0.89%”; in data set [1] (extreme conditions (90% RH)) it was “approximately 1.16%”; in data set [1] (setting [4]) it was “approximately 0.65%”. For the same compound, in data set [1], the “crystal form before and after DVS detection (XRPD)” value is “did not change”.

With `N#Cc1ccc2c(c1)COc1cc(C[C@@H](C#N)NC(=O)[C@@H]3CNCCCO3)c(F)cc1-2` [crystal form D], the “weight gain by hygroscopicity” value in data set [1] (setting [3]) is on record as “approximately 0.76%”; in data set [1] (extreme conditions (90% RH)), “approximately 0.84%”; in data set [1] (setting [4]) it was “approximately 0.64%”. Besides, in data set [1], the “crystal form before and after DVS detection (XRPD)” value is reported as “did not change”.

As to `N#Cc1ccc2c(c1)COc1cc(C[C@@H](C#N)NC(=O)[C@@H]3CNCCCO3)c(F)cc1-2` [free base crystal form E], the “Content (%) of the compound of formula I” value worked out at 97.45% in data set [2] (0 day); 96.07% in data set [2] (0.5 ICH (light)); 94.52% in data set [2] (1 ICH (light)); 97.29% in data set [2] (25° C. RH 92%-1 week); 97.5% in data set [2] (25° C. RH 92%-2 weeks); 97.36% in data set [2] (40° C. RH 75%-1 week). The figures for the “Content (%) of the compound of formula I” value in data set [2] (40° C. RH 75%-2 weeks), in data set [2] (60° C.-1 week) and in data set [2] (60° C.-2 weeks) were 97.51%, 97.25% and 97.55%, respectively. Also, the “related substances (impurities) by HPLC versus initial” value in data set [2] (light conditions) is recorded as “impurities increased”; in data set [2] (various temperature and humidity conditions) it was “no significant increase or only a slight increase”. Further, the “crystal form after stability test (XRPD)” value in data set [2] (samples of the last day under light and various temperature and humidity conditions) was “had no change”.

The record behind these values is patent US20250353839A1, “POLYMORPH OF BENZO[C]CHROMAN COMPOUND, PREPARATION METHOD THEREFOR AND USE THEREOF” (Reistone Biopharma Company Limited, priority 2022, published 2025).
